Common to all, as to type: in vivo
One experiment has as its system BAW (Spodoptera exigua). Kind of experiment: Bioassay on beet armyworm (BAW), 128-well diet tray assay. The note with it: 168 h, read-out: % Mortality BAW 50 μg/cm^2. How it is done: (§1) Certain molecules disclosed in this document were tested against BAW and CEW using procedures described in the following examples. In the reporting of the results, the “BAW & CEW Rating Table” was used (See Table Section).
Bioassays on BAW (Spodoptera exigua)
Bioassays on BAW were conducted using a 128-well diet tray assay. […] Trays were covered with a clear self-adhesive cover and held at 25° C., 14:10 light-dark for five to seven days. Percent mortality was recorded for the larvae in each well; activity in the eight wells was then averaged. The results are indicated in the table entitled “Table 5: Biological Results” (See Table Section).

A further experiment concerns CEW (Helicoverpa zea). Description: Bioassay on corn earworm (CEW), 128-well diet tray assay. To be noted: 168 h, read-out: % Mortality CEW 50 μg/cm^2. Here is the method: as §1
Bioassays on CEW (Helicoverpa zea)
Bioassays on CEW were conducted using a 128-well diet tray assay. […] Trays were covered with a clear self-adhesive cover and held at 25° C., 14:10 light-dark for five to seven days. Percent mortality was recorded for the larvae in each well; activity in the eight wells was then averaged. The results are indicated in the table entitled “Table 5: Biological Results” (See Table Section).

The subject of a further experiment is GPA (Myzus persicae). Kind of experiment: Bioassay on green peach aphid (GPA), foliar spray on cabbage seedlings. To be noted: 72 h, read-out: % Mortality GPA 200 ppm. Here is the method: Certain molecules disclosed in this document were tested against GPA using procedures described in the following example. In the reporting of the results, the “GPA Rating Table” was used (See Table Section).
Cabbage seedlings grown in 3-inch pots, with 2-3 small (3-5 cm) true leaves, were used as test substrate. The seedlings were infested with 20-50 GPA (wingless adult and nymph stages) one day prior to chemical application. Four pots with individual seedlings were used for each treatment. Test compounds (2 mg) were dissolved in 2 mL of acetone/methanol (1:1) solvent, forming stock solutions of 1000 ppm test compound. […] A hand-held aspirator-type sprayer was used for spraying a solution to both sides of […] leaves until runoff. Reference plants (solvent check) were sprayed with the diluent only containing 20% by volume of acetone/methanol (1:1) solvent. Treated plants were held in a holding room for three days at approximately 25° C. and ambient relative humidity (RH) prior to grading. Evaluation was conducted by counting the number of live aphids per plant under a microscope. […] Corrected % Control=100*(X−Y)/X • where • X=No. of live aphids on solvent check plants and • Y=No. of live aphids on treated plants
The results are indicated in the table entitled “Table 5: Biological Results” (See Table Section).

Setting [1] is: 50 μg/cm^2 on artificial diet, second instar larvae, five to seven days, 25° C.
Setting [2] is: 200 ppm foliar spray on cabbage seedlings, three days, Abbott corrected % control.

Like-named read-outs stand apart in the source and are kept apart here.

As to `Cc1cccc(C)c1/N=C(/N/N=C/c1ccc(-c2ncn(-c3ccc(OC(F)(F)F)cc3)n2)cc1)SCC#C[Si](C)(C)C` [Compound 9C], the mortality at 50 µg/cm2 with BAW (Spodoptera exigua) and in the experiment on CEW (Helicoverpa zea) was 50 to 100% each time. In addition, in the experiment with GPA (Myzus persicae) (foliar), the mortality at 200 ppm came out at 0%.
For `Cc1cccc(C)c1/N=C(/N/N=C/c1ccc(-c2ncn(-c3ccc(OC(F)(F)F)cc3)n2)cc1)SCOC(=O)CNC(=O)OCc1ccccc1` [Compound 23C], the mortality at 50 µg/cm2 with BAW (Spodoptera exigua) and with CEW (Helicoverpa zea) was 50 to 100% in each case. The mortality at 200 ppm in the experiment on GPA (Myzus persicae) (foliar) was found to be 0%.
Regarding `COc1cc(C)c(/N=C(/N/N=C/c2ccc(-c3ncn(-c4ccc(OC(F)(F)F)cc4)n3)cc2)SCOC(=O)CNC(=O)OCc2ccccc2)c(C)c1` [Compound 28C], the mortality at 50 µg/cm2 in the experiment with BAW (Spodoptera exigua) and with CEW (Helicoverpa zea) was 50 to 100% each time. Moreover, in the experiment with GPA (Myzus persicae) (foliar), the mortality at 200 ppm was 0 to 80%.
`COc1cc(C)c(/N=C(\N/N=C/c2ccc(-c3ncn(-c4ccc(C(F)(F)F)cc4)n3)cc2)SCOC(=O)CNC(=O)OCc2ccccc2)c(C)c1` [Compound 45C]: the mortality at 50 µg/cm2 with BAW (Spodoptera exigua) and in the experiment on CEW (Helicoverpa zea) was 50 to 100% each time.
For `COc1cc(C)c(/N=C(/N/N=C/c2ccc(-c3ncn(-c4ccc(OC(F)(F)F)cc4)n3)cc2)SCC(=O)N2CCNCC2)c(C)c1` [Compound 65C], the mortality at 50 µg/cm2 in the experiment on BAW (Spodoptera exigua) (setting [1]) and with CEW (Helicoverpa zea) (setting [1]) was 50 to 100% in each case. In the experiment with GPA (Myzus persicae) (setting [2]), the mortality at 200 ppm lay in the range of 0 to 80%.
Regarding `CC(C)c1ccccc1N1C(=O)CS/C1=N\N=C\c1ccc(-c2ncn(-c3ccc(OC(F)(F)F)cc3)n2)cc1` [Compound 73C], the mortality at 50 µg/cm2 with BAW (Spodoptera exigua) (setting [1]) and in the experiment with CEW (Helicoverpa zea) (setting [1]) was 50 to 100% each time. For the same compound, the mortality at 200 ppm in the experiment with GPA (Myzus persicae) (setting [2]) was in the range of 0 to 80%.
As for `C/C(=N\N=C1/SCC(=O)N1c1ccccc1C(C)C)c1ccc(-c2ncn(-c3ccc(OC(F)(F)F)cc3)n2)cc1` [Compound 122C], the mortality at 50 µg/cm2 in the experiment with BAW (Spodoptera exigua) (setting [1]) and with CEW (Helicoverpa zea) (setting [1]) was 50 to 100% throughout.
Take `FC(F)Oc1ccccc1N1CCCS/C1=N\N=C\c1ccc(-c2ncn(-c3ccc(OC(F)(F)F)cc3)n2)cc1` [Compound 200C]: the mortality at 50 µg/cm2 in the experiment on BAW (Spodoptera exigua) (setting [1]) and in the experiment on CEW (Helicoverpa zea) (setting [1]) was 50 to 100% in each case.
In the case of `Cc1cccc(Cl)c1N1/C(=N/N=C/c2ccc(-c3ncn(-c4ccc(OC(F)(F)F)cc4)n3)cc2)SCCC1C` (stereo not shown) [Compound 227C], the mortality at 50 µg/cm2 with BAW (Spodoptera exigua) (setting [1]) and in the experiment on CEW (Helicoverpa zea) (setting [1]) was 50 to 100% throughout.
For `CC1CCS/C(=N\N=C\c2ccc(-c3ncn(-c4ccc(OC(F)(F)F)cc4)n3)cc2)N1c1ccccc1OC(C)(F)F` (stereo not shown) [Compound 229C], the mortality at 50 µg/cm2 in the experiment with BAW (Spodoptera exigua) (setting [1]) and with CEW (Helicoverpa zea) (setting [1]) was 50 to 100% throughout.

The record behind these values is US9107413B2, “Pesticidal compositions and processes related thereto” (priority 2011, dated 2015).
